Assay results reported in patent US20220233708A1, “ANTIBODY-DRUG CONJUGATE, INTERMEDIATE THEREOF, PREPARATION METHOD THEREFOR AND APPLICATION THEREOF” (priority 2019, published 2022).
Starred links: 1 amine or outer side, 2 acyl side, 3 side chain; linkers in the order of their positions; H or OH if unused. Non-standard residues stand in square brackets, D forms with d. Residues, ends and D or L forms follow the SMILES beside them. *: point of attachment. Exatecan = CC[C@@]1(O)C(=O)OCc2c1cc1n(c2=O)Cc2c-1nc1cc(F)c(C)c3c1c2[C@@H](N*)CC3; X2 = CC[C@@]1(O)C(=O)OC(=O)C2=C1C=C1c3nc4cc(F)c(C)c5c4c(c3CN1C2)[C@@H](N*)CC5; Hexanoyl(6-maleimido) = O=C1C=CC(=O)N1CCCCCC(=O)*; X3 = O=C1C=CC(=O)N1CC1CCC(C(=O)*)CC1; X1 = O=C1C=C(Br)C(=O)N1CCCCCC(=O)*; NHCH2OCH2CO = O=C(COCN[*:1])[*:2]

Key:
anti-B7-H3 antibody P2E5 = experiment: Coupling of linker-drug conjugates with P2E5; format: physicochemical; conditions: coupling with P2E5, highest DAR (excessive coupling)
Procedure: (§1) The anti-B7-H3 antibody P2E5, anti-Claudin18.2 antibody IMAB362, and anti-HER2 antibody Trastuzumab (concentration was 15 mg/mL) were replaced into 50 mM PB/1.0 mM EDTA buffer (pH 7.0) by a G25 desalting column, respectively. 12 equivalents of TECP was added and the mixture was stirred at 37° C. for 2 hours to fully open the disulfide bonds between the antibody chains. Then phosphoric acid was used to adjust the pH of the reduced antibody solution to 6.0, and the temperature of the water bath was lowered to 25° C. for coupling reaction. […] After the reaction was completed, the sample was filtered with a 0.22 μm membrane. Uncoupled small molecules were purified and removed by a tangential flow ultrafiltration system. The buffer was 50 mM PB/1.0 mM EDTA solution (pH 6.0). After purification, sucrose (final concentration was 6%) was added, and the mixture was stored in a refrigerator at −20° C. The UV method was used to measure the absorbance values at 280 nm and 370 nm respectively, and the DAR value was calculated.

[1] = tested on: anti-Claudin18.2 antibody IMAB362; experiment: Coupling of linker-drug conjugates with IMAB362; format: physicochemical; conditions: coupling with IMAB362, highest DAR (excessive coupling)
Procedure: as §1

[2] = tested on: anti-HER2 antibody Trastuzumab; experiment: Coupling of linker-drug conjugates with Trastuzumab; format: physicochemical; conditions: highest DAR (excessive coupling)
Procedure: as §1

cathepsin B = cathepsin B (Homo sapiens, UniProt P07858); experiment: In vitro enzyme cleavage experiment of linker-drug conjugates; format: in vitro ADME; conditions: pH 5.0 to pH 7.0
Procedure: Linker-drug conjugates (LE14 and GGFG-Dxd) and cathepsin B were incubated in three different pH (5.0, 6.0, 7.0) buffers, and samples were taken at different time points into the high performance liquid chromatography-mass spectrometer. The release percentage of the drug was determined by external standard method (with Dxd as the external standard).

Row | Structure (SMILES) | Ratio of aggregates (anti-B7-H3 antibody P2E5) | Whether precipitation (anti-B7-H3 antibody P2E5) | Ratio of aggregates [1] | Whether precipitation [1] | Ratio of aggregates [2] | Whether precipitation [2] | Enzyme cleavage speed (in words) (cathepsin B)
1 | CC[C@@]1(O)C(=O)OC(=O)C2=C1C=C1c3nc4cc(F)c(C)c5c4c(c3CN1C2)[C@@H](NC(=O)COCN(CCS(C)(=O)=O)C(=O)OCc1ccc(NC(=O)[C@H](C)NC(=O)[C@@H](NC(=O)CCCCCN2C(=O)C=CC2=O)C(C)C)cc1)CC5 [LE14] | 1.3% | No | 2.5% | No | 0.3% | No | could quickly cleave
2 | CC[C@@]1(O)C(=O)OC(=O)C2=C1C=C1c3nc4cc(F)c(C)c5c4c(c3CN1C2)[C@@H](NC(=O)COCN(CCN(C)C)C(=O)OCc1ccc(NC(=O)[C@H](C)NC(=O)[C@@H](NC(=O)C2CCC(CN3C(=O)C=CC3=O)CC2)C(C)C)cc1)CC5 (stereo partly shown) [LE17] | 1.5% | No | 1.6% | No | 0.1% | No | –
3 | CC[C@@]1(O)C(=O)OCc2c1cc1n(c2=O)Cc2c-1nc1cc(F)c(C)c3c1c2[C@@H](NC(=O)COCNC(=O)CNC(=O)[C@H](Cc1ccccc1)NC(=O)[C@H](CS)NC(=O)[C@@H](NC(=O)CCCCCN1C(=O)C=CC1=O)C(C)C)CC3 [LE24] ({Hexanoyl(6-maleimido)}-VCFG[NHCH2OCH2CO]-Exatecan) | 1.2% | No | 2.0% | No | 0.1% | No | –
4 | CCC1(O)C(=O)OC(=O)C2=C1C=C1c3nc4cc(F)c(C)c5c4c(c3CN1C2)C(NC(=O)COCNC(=O)CNC(=O)C(Cc1ccccc1)NC(=O)CNC(=O)CNC(=O)C(CN)N1C(=O)C=CC1=O)CC5 (stereo not shown) [LE03] | 1.1% | No | 1.5% | No | 0.2% | No | –
5 | CC[C@@]1(O)C(=O)OC(=O)C2=C1C=C1c3nc4cc(F)c(C)c5c4c(c3CN1C2)[C@@H](NC(=O)COCNC(=O)CNC(=O)[C@H](Cc1ccccc1)NC(=O)CNC(=O)CNC(=O)[C@H](CCCCN)NC(=O)CCCCCN1C(=O)C=CC1=O)CC5 [LE06] ({Hexanoyl(6-maleimido)}-KGGFG[NHCH2OCH2CO]-X2) | 1.2% | No | 1.7% | No | 0.5% | No | –
6 | CC[C@@]1(O)C(=O)OC(=O)C2=C1C=C1c3nc4cc(F)c(C)c5c4c(c3CN1C2)[C@@H](NC(=O)COCN(CCN(C)C)C(=O)OCc1ccc(NC(=O)[C@H](C)NC(=O)[C@@H](NC(=O)CCCCCN2C(=O)C=CC2=O)C(C)C)cc1)CC5 [LE13] | 1.5% | No | 2.3% | No | 0.1% | No | –
7 | CC[C@@]1(O)C(=O)OCc2c1cc1n(c2=O)Cc2c-1nc1cc(F)c(C)c3c1c2[C@@H](NC(=O)COCNC(=O)CNC(=O)[C@H](Cc1ccccc1)NC(=O)[C@H](C)NC(=O)[C@@H](NC(=O)CCCCCN1C(=O)C=CC1=O)C(C)C)CC3 [LE23] ({Hexanoyl(6-maleimido)}-VAFG[NHCH2OCH2CO]-Exatecan) | 1.9% | No | 1.6% | No | 0.1% | No | –
8 | CC[C@@]1(O)C(=O)OC(=O)C2=C1C=C1c3nc4cc(F)c(C)c5c4c(c3CN1C2)[C@@H](NC(=O)COCN(CCS(C)(=O)=O)C(=O)OCc1ccc(NC(=O)[C@H](C)NC(=O)[C@@H](NC(=O)C2CCC(CN3C(=O)C=CC3=O)CC2)C(C)C)cc1)CC5 (stereo partly shown) [LE16] | 2.0% | No | 1.5% | No | 0.5% | No | –
9 | CCC1(O)C(=O)OC(=O)C2=C1C=C1c3nc4cc(F)c(C)c5c4c(c3CN1C2)C(NC(=O)COCNC(=O)CNC(=O)C(Cc1ccccc1)NC(=O)CNC(=O)CNC(=O)CCOCCOCCOCCOCCOCCOCCOCCOCCN1C(=O)C=CC1=O)CC5 (stereo not shown) [LE04] | 2.5% | No | 2.1% | No | 0.1% | No | –
10 | CC[C@@]1(O)C(=O)OC(=O)C2=C1C=C1c3nc4cc(F)c(C)c5c4c(c3CN1C2)[C@@H](NC(=O)COCN(CCS(C)(=O)=O)C(=O)OCc1ccc(NC(=O)[C@H](C)NC(=O)[C@@H](NC(=O)CCCn2cc(CNC(=O)CCCCCN3C(=O)C=CC3=O)nn2)C(C)C)cc1)CC5 [LE19] | 1.2% | No | 1.4% | No | 0.2% | No | –
11 | CC[C@@]1(OCN(CCN(C)C)C(=O)OCc2ccc(NC(=O)[C@H](C)NC(=O)[C@@H](NC(=O)CCCCCN3C(=O)C=CC3=O)C(C)C)cc2)C(=O)OCc2c1cc1n(c2=O)Cc2c-1nc1cc(F)c(C)c3c1c2[C@@H](NC(=O)CO)CC3 [LE22] | 2.1% | No | 1.5% | No | 0.5% | No | –
12 | CCC1(O)C(=O)OC(=O)C2=C1C=C1c3nc4cc(F)c(C)c5c4c(c3CN1C2)C(NC(=O)COCNC(=O)CNC(=O)C(Cc1ccccc1)NC(=O)CNC(=O)CNC(=O)C(CCCCN1C(=O)C=CC1=O)S(=O)(=O)O)CC5 (stereo not shown) [LE02] | 1.3% | No | 1.8% | No | 0.2% | No | –
13 | CC[C@@]1(O)C(=O)OC(=O)C2=C1C=C1c3nc4cc(F)c(C)c5c4c(c3CN1C2)[C@@H](NC(=O)COCN(CCS(C)(=O)=O)C(=O)OCc1ccc(NC(=O)[C@H](C)NC(=O)[C@@H](NC(=O)CCCn2cc(CNC3CCC(CN4C(=O)C=CC4=O)CC3)nn2)C(C)C)cc1)CC5 (stereo partly shown) [LE18] | 1.6% | No | 2.1% | No | 0.1% | No | –
14 | CC[C@@]1(O)C(=O)OCc2c1cc1n(c2=O)Cc2c-1nc1cc(F)c(C)c3c1c2[C@@H](NC(=O)COCNC(=O)CNC(=O)[C@H](Cc1ccccc1)NC(=O)CNC(=O)CNC(=O)CCCCCN1C(=O)C=C(Br)C1=O)CC3 [LE05] (X1-GGFG[NHCH2OCH2CO]-Exatecan) | 1.6% | No | 2.3% | No | 0.1% | No | –
15 | CC[C@@]1(OCN(CCS(C)(=O)=O)C(=O)OCc2ccc(NC(=O)[C@H](C)NC(=O)[C@@H](NC(=O)CCCCCN3C(=O)C=CC3=O)C(C)C)cc2)C(=O)OCc2c1cc1n(c2=O)Cc2c-1nc1cc(F)c(C)c3c1c2[C@@H](NC(=O)CO)CC3 [LE21] | 2.2% | No | 2.3% | No | 0.2% | No | –
16 | CC[C@@]1(O)C(=O)OCc2c1cc1n(c2=O)Cc2c-1nc1cc(F)c(C)c3c1c2[C@@H](NC(=O)COCNC(=O)CNC(=O)[C@H](Cc1ccccc1)NC(=O)CNC(=O)CNC(=O)C1CCC(CN2C(=O)C=CC2=O)CC1)CC3 (stereo partly shown) [LE01] (X3-GGFG[NHCH2OCH2CO]-Exatecan) | 2.1% | No | 2.0% | No | 0.2% | No | –
17 | CC[C@@]1(O)C(=O)OC(=O)C2=C1C=C1c3nc4cc(F)c(C)c5c4c(c3CN1C2)[C@@H](NC(=O)COCN(CCS(C)(=O)=O)C(=O)OCc1ccc(NC(=O)[C@H](C)NC(=O)[C@@H](NC(=O)C(CCCCN2C(=O)C=CC2=O)S(=O)(=O)O)C(C)C)cc1)CC5 (stereo partly shown) [LE15] | 2.1% | No | 1.6% | No | 0.2% | No | –
18 | CC[C@@]1(O)C(=O)OCc2c1cc1n(c2=O)Cc2c-1nc1cc(F)c(C)c3c1c2[C@@H](NC(=O)COCNC(=O)CNC(=O)[C@H](Cc1ccccc1)NC(=O)CNC(=O)[C@H](CCCCN)NC(=O)CCCCCN1C(=O)C=CC1=O)CC3.O=C(O)C(F)(F)F [LE07] ({Hexanoyl(6-maleimido)}-KGFG[NHCH2OCH2CO]-Exatecan) | 1.3% | No | 1.6% | No | 0.5% | No | –
